Results on 45 molecules are retold here after patent US10703755B2, “Substituted purine derivative” (SUMITOMO DAINIPPON PHARMA CO., LTD., priority 2016, dated 2020).

The target of the assay is human TLR7 (Homo sapiens (Human), UniProt Q9NYK1). Briefly: Test for evaluating the inhibition of the activation of human TLR7 (SEAP reporter, TLR7/NF-κB/SEAPorter HEK293 cell). It is filed as cell-based. To be noted: R-848 200 nmol/L; for IC50: SEAP reporter; for inhibitory effect against TLR7 in the test for evaluating inhibition of the activation of TLR7: SEAP activity, result in words. How it is done: As human TLR7 expressing cell line, HEK293 cell line was bought from IMGENEX Corporation (TLR7/NF-ηB/SEAPorter™ HEK293 cell), which is human embryonic kidney cell line and stably expresses full-length human TLR7 gene and secreted alkaline phosphatase (SEAP) reporter gene under the transcriptional control of an NE-ηB response element. The TLR7/NF-ηB/SEAPorter™ HEK293 cell was cultivated with DMEM containing 10% fetal bovine serum (FBS) and 10 μg/mL blasticidin S at 37° C. in the presence of 5% CO2. The TLR7/NF-ηB/SEAPorter™ HEK293 cell was seeded into 96-well microtiter plate at 5×10^4 cell/90 μL/well, and the place was cultivated at 37° C. in a CO2 incubator overnight.
Sequence of human TLR7 (Q9NYK1 27-1049): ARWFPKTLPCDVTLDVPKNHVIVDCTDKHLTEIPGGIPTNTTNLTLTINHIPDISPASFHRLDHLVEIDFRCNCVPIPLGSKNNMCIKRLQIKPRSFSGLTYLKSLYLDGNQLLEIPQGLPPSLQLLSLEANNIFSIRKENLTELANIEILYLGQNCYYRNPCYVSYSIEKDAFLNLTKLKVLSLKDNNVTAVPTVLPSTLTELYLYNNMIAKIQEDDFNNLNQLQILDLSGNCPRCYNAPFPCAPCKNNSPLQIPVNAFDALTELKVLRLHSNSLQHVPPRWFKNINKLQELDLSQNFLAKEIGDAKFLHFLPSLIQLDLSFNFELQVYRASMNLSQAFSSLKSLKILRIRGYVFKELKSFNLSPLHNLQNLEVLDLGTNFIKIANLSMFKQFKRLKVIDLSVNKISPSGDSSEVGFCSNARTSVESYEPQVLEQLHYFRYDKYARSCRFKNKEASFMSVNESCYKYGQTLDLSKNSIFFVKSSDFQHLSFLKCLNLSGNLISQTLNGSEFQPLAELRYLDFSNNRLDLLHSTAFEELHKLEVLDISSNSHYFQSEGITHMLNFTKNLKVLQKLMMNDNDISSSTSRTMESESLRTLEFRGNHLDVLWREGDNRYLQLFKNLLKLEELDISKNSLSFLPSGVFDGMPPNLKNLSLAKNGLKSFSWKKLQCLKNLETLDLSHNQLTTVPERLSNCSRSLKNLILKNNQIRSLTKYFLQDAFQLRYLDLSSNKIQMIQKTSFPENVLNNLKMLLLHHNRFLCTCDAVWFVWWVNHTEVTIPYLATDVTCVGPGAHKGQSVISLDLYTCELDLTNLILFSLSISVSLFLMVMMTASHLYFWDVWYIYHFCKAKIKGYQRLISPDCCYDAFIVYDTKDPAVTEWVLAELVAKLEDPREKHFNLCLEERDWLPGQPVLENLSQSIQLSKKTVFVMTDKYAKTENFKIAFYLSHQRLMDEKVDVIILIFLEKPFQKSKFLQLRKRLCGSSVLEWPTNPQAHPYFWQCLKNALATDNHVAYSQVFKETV
Each compound prepared in the Examples was evaluated by Test 1.

`COc1nc(C)c2nc(-c3cncc(F)c3)n(Cc3ccc(C4CN5CCC4CC5)cc3F)c2n1` (single isomer, unassigned) [Example 392, 9-[4-(1-azabicyclo[2.2.2]oct-3-yl)-2-fluorobenzyl]-8-(5-fluoropyridin-3-yl)-2-methoxy-6-methyl-9H-purine]: the IC50 amounted to 13 nM.

`COc1nc(C)c2nc(-c3cncc(F)c3)n(Cc3ccc(C4CN5CCC4CC5)cc3F)c2n1` (single isomer, unassigned) [Example 393, 9-[4-(1-azabicyclo[2.2.2]oct-3-yl)-2-fluorobenzyl]-8-(5-fluoropyridin-3-yl)-2-methoxy-6-methyl-9H-purine] gave an IC50 of 1 nM. `COc1nc(C)c2nc(-c3cncc(C#N)c3)n(Cc3ccc(C4CN5CCC4CC5)cc3F)c2n1` (single isomer, unassigned) [Example 402, 5-{9-[4-(1-azabicyclo[2.2.2]oct-3-yl)-2-fluorobenzyl]-2-methoxy-6-methyl-9H-purin-8-yl}pyridine-3-carbonitrile] gave an IC50 of 132 nM.

In the case of `COc1nc(C)c2nc(-c3cncc(C#N)c3)n(Cc3ccc(C4CN5CCC4CC5)cc3F)c2n1` (single isomer, unassigned) [Example 403, 5-{9-[4-(1-azabicyclo[2.2.2]oct-3-yl)-2-fluorobenzyl]-2-methoxy-6-methyl-9H-purin-8-yl}pyridine-3-carbonitrile], the “inhibitory effect against TLR7 in the test for evaluating inhibition of the activation of TLR7” value is “potent inhibitory effect against TLR7” and half-maximal inhibition (IC50) required 21 nM. Consider `CCCCOc1nc(N)c2nc(-c3cncc(F)c3)n(Cc3ccccc3)c2n1` [Example 1, 9-Benzyl-2-butoxy-8-(5-fluoropyridin-3-yl)-9H-purine-6-amine], for which the IC50 worked out at 2300 nM. Same read-out and setting: the result for `CCCCOc1nc(N)c2nc(-c3cccnc3)n(Cc3ccccc3)c2n1` [Example 2] reads 5500 nM; that for `CCCCOc1nc(N)c2nc(-c3cccnc3)n(Cc3cccnc3)c2n1` [Example 3], 9200 nM. As for `CCCCOc1nc(N)c2nc(-c3ccncc3)n(Cc3ccccc3)c2n1` [Example 4], the IC50 came out at 7800 nM. Molecule `CCCCOc1nc(N)c2nc(-c3cncnc3)n(Cc3ccccc3)c2n1` [Example 5] gave an IC50 of 1400 nM.

On to `CCCCOc1nc(N)c2nc(-c3cnc(N)nc3)n(Cc3ccccc3)c2n1` [Example 6], for which it took 9600 nM to reach half-maximal inhibition (IC50).

Take `CCCCOc1nc(N)c2nc(-c3ccoc3)n(Cc3ccccc3)c2n1` [Example 7]: 7800 nM corresponded to half-maximal inhibition (IC50).

Consider `CCCCOc1nc(N)c2nc(-c3cnn(C)c3)n(Cc3ccccc3)c2n1` [Example 8], for which half-maximal inhibition (IC50) was put at 9300 nM. For the molecule `CCCCOc1nc(N)c2nc(-c3ccccc3)n(Cc3cccnc3)c2n1` [Example 9], 12800 nM corresponded to half-maximal inhibition (IC50). For `CCCCOc1nc(N)c2nc(-c3cncc(OC)c3)n(Cc3ccccc3)c2n1` [Example 10], it took 800 nM to reach half-maximal inhibition (IC50). For `CCCCOc1nc(N)c2nc(-c3ccccc3)n(Cc3ccccc3)c2n1` [Example 11], the IC50 is 10900 nM. Molecule `CCCCOc1nc(N)c2nc(-c3cccc(OC)c3)n(Cc3ccccc3)c2n1` [Example 12] gave an IC50 of 9200 nM. The molecule `CCCCOc1nc(N)c2nc(-c3cccc(Cl)c3)n(Cc3ccccc3)c2n1` [Example 13] displayed an IC50 of 9300 nM. In turn, `CCCCOc1nc(N)c2nc(-c3cncc(Cl)c3)n(Cc3ccccc3)c2n1` [Example 17] gave an IC50 of 1100 nM. Consider `CCCCOc1nc(N)c2nc(-c3cncc(C)c3)n(Cc3ccccc3)c2n1` [Example 18], for which the IC50 was 2700 nM. The same measure, in the same setting: as for `CCCCOc1nc(N)c2nc(-c3cncc(COC)c3)n(Cc3ccccc3)c2n1` [Example 19], the figure is 1400 nM; as for `CCCCOc1nc(N)c2nc(-c3cncc(CO)c3)n(Cc3ccccc3)c2n1` [Example 20], 22500 nM. Take `CCOc1nc(N)c2nc(-c3cncc(F)c3)n(Cc3ccccc3)c2n1` [Example 21]: the IC50 is 700 nM. The molecule `CCOc1nc(N)c2nc(-c3cncc(F)c3)n(Cc3cccnc3)c2n1` [Example 22] yielded an IC50 of 2000 nM. As to `COCCOc1nc(N)c2nc(-c3cncc(OC)c3)n(Cc3ccccc3)c2n1` [Example 24], the midpoint of inhibition, the IC50, lay at 13700 nM.

In turn, `COCCOc1nc(N)c2nc(-c3cncc(F)c3)n(Cc3ccccc3)c2n1` [Example 25] gave an IC50 of 3500 nM. As for `CCCCNc1nc(N)c2nc(-c3cncc(OC)c3)n(Cc3ccccc3)c2n1` [Example 26], the IC50 came to 18700 nM.

In turn, `CCCCCc1nc(N)c2nc(-c3cncc(OC)c3)n(Cc3ccccc3)c2n1` [Example 27] returned an IC50 of 1400 nM. For the molecule `CCCCOc1nc(N)c2nc(-c3cncc(COC)c3)n(Cc3ccccc3)c2n1` [Example 29], the IC50 was 1000 nM. As to `CCOc1nc(N)c2nc(-c3cncc(C(F)F)c3)n(Cc3ccccc3)c2n1` [Example 30], the IC50 worked out at 2800 nM. On the same count and under the same terms, the result for `COCCOc1nc(N)c2nc(-c3cncc(C#N)c3)n(Cc3ccc(CN(C)C)cc3)c2n1` [Example 31] reads 7700 nM; that for `COCCOc1nc(N)c2nc(-c3cnc4ccccc4c3)n(Cc3ccc(CN(C)C)cc3)c2n1` [Example 32], 8600 nM; that for `CCOc1nc(N)c2nc(-c3cncc(C)c3)n(Cc3ccc(CN(C)C)cc3)c2n1` [Example 33], 820 nM. With `CCOc1nc(N)c2nc(-c3cncc(COC)c3)n(Cc3ccc(CN(C)C)cc3)c2n1` [Example 34], the IC50 was 1700 nM.

For the molecule `CCCCOc1nc(N)c2nc(-c3ccccn3)n(Cc3ccccc3)c2n1` [Example 35], it took 18100 nM to reach half-maximal inhibition (IC50). With `CCOc1nc(N)c2nc(-c3cncc(OC)c3)n(Cc3ccc(CN(C)C)cc3)c2n1` [Example 36], half-maximal inhibition (IC50) required 2900 nM.

Molecule `CCOc1nc(N)c2nc(-c3cncc(F)c3)n(Cc3cnn(C)c3)c2n1` [Example 37] gave an IC50 of 2700 nM.

Consider `CCOc1nc(N)c2nc(-c3cncc(F)c3)n(Cc3ccc(O[C@@H]4CCN(C)C4)nc3)c2n1` [Example 38], for which inhibition was half-maximal at 520 nM (IC50).

Consider `CCOc1nc(N)c2nc(-c3cncc(F)c3)n(Cc3ccc(O[C@H]4CCN(C)C4)nc3)c2n1` [Example 39], for which the IC50 was found to be 820 nM.

As for `CCOc1nc(N)c2nc(-c3cncc(F)c3)n(Cc3ccc(O[C@@H]4CN5CCC4CC5)nc3)c2n1` [Example 40], the IC50 was determined as 120 nM. Regarding `CCOc1nc(N)c2nc(-c3cncc(F)c3)n(Cc3ccc(O[C@H]4CN5CCC4CC5)nc3)c2n1` [Example 41], it took 140 nM to reach half-maximal inhibition (IC50). Molecule `CCOc1nc(N)c2nc(-c3cncc(F)c3)n(Cc3ccc(OCCCN(C)C)nc3)c2n1` [Example 42] gave an IC50 of 550 nM. Still for that read-out and setting: the result for `CCOc1nc(N)c2nc(-c3cncc(F)c3)n(Cc3cc(OC)ccc3F)c2n1` [Example 43] reads 2000 nM. The molecule `CCOc1nc(N)c2nc(-c3cncc(F)c3)n(Cc3ccccc3F)c2n1` [Example 44] gave an IC50 of 750 nM.

In turn, `CCOc1nc(N)c2nc(-c3cncc(F)c3)n(Cc3ccc(-c4cncc(F)c4)cc3)c2n1` [Example 45] returned an IC50 of 950 nM. Take `CCOc1nc(N)c2nc(-c3cncc(F)c3)n(Cc3ccc(C4CN5CCC4CC5)cc3)c2n1` (centres unmarked) [Example 46]: the “inhibitory effect against TLR7 in the test for evaluating inhibition of the activation of TLR7” value is reported as “potent inhibitory effect against TLR7” and it took 25 nM to reach half-maximal inhibition (IC50).

As usually defined, the IC50 is the midpoint of a concentration-inhibition curve. Lower therefore signals inhibition by little substance.
